Experimental data: paper PMC4008364, “Alleviation of behavioral hypersensitivity in mouse models of inflammatory pain with two structurally different casein kinase 1 (CK1) inhibitors” (Molecular Pain, 2014)
Where a chain is given by its changes, count along the chain named. Where two headings read alike, the source gives them in different places.

Legend:
[1] = test system: substantia gelatinosa neurons; assay: Whole-cell patch-clamp recording of sEPSCs in spinal cord slices; type: cell-based, mouse; settings: for frequency and amplitude of sEPSCs, control mice: 1 μM superfusion, slices from control mice, holding potential -70 mV; for mean frequency of sEPSCs in inflammatory pain model mice: 1 μM, carrageenan- and CFA-inflamed mice
Description: (§1) Adult mouse spinal cord slices were prepared according to the method of Yoshimura & Jessell. Briefly, 6 hours after carrageenan or saline injection, and 3 days after CFA or IFA injection, transverse slices (thickness, 800-900 μm) of the L5 spinal segments with the L5 dorsal root attached were cut on a vibrating blade microtome. The slices were superfused with Krebs solution (10-15 ml/min) saturated with 95% O2 and 5% CO2 at 36 ± 1°C. The composition of Krebs solution was as follows (in mM): NaCl 117; KCl 3.6; NaHCO3 25; NaH2PO4 1.2; CaCl2 2.5; MgCl2 1.2, and glucose 11 (pH 7.4 after gas saturation).
Blind whole-cell patch-clamp recordings were made from the lamina II (substantia gelatinosa: SG) neurons ipsilateral to carrageenan, CFA, or vehicle (saline or IFA) injection in voltage clamp mode. Patch pipettes were fabricated from thin-walled, borosilicate, glass-capillary tubing (1.5 mm o.d., World Precision Instruments). After establishing the whole-cell configuration, neurons were held at the potential of -70 mV to record spontaneous excitatory postsynaptic currents (sEPSCs) and at the potential of 0 mV to record spontaneous inhibitory postsynaptic currents (sIPSC). Under these conditions, GABA- and glycine-mediated IPSCs and glutamate-mediated EPSCs, respectively, were negligible, because these holding potential were close to the reversal potentials of IPSCs and EPSCs, respectively. Recording electrodes were filled with either potassium gluconate-based solution (in mM: K-gluconate 135; KCl 5; CaCl2 0.5; MgCl2 2; EGTA 5; HEPES 5; ATP-Mg 5; adjusted with KOH to pH 7.2) to investigate EPSCs, or Cs-based solution (in mM: Cs2SO4 110; tetraethylammonium 5; CaCl2 0.5; MgCl2 2; EGTA 5; HEPES 5; ATP-Mg 5; adjusted with CsOH to pH 7.2) to examine IPSCs. The resistance of a typical patch pipette is 5-10 MΩ. Membrane currents were amplified with an Axopatch 200B amplifier (Molecular Devices, Sunnyvale, CA, USA) in voltage-clamp mode. Signals were low-pass filtered at 5 kHz and digitized at 333 kHz with an A/D converter (Digidata 1322, Molecular Devices). Data were stored with a personal computer using pCLAMP10 software and analyzed with Mini Analysis software (Synaptosoft Inc., Decatur, GA, USA).
(§2) The average values of both frequency and amplitude of sEPSCs or sIPSCs during the control (1 min) and 5-10 min after the drug application (1 min period after the attainment of steady effect of each drug) were calculated and quantified as relative changes in frequency and amplitude.

human CK1α = target: T1, human CK1α (Homo sapiens, UniProt P48729); assay: In vitro kinase assay (QuickScout mobility shift assay), CK1α; type: biochemical
T1 construct: Full-length human CK1α, CK1γ1, CK1γ2, CK1γ3; GST (N); purchased Carna Biosciences, Inc; host or cells: baculovirus system (insect cells)
From the text: (§3) […]; Carna Biosciences, Inc., Kobe, Japan). Detailed information on the assay condition is available on the website of Carna Biosciences (http://www.carnabio.com). Full-length human CK1α, CK1γ1, CK1γ2, CK1γ3 and catalytic domain of human CK1ϵ were expressed as N-terminal GST-fusion protein using baculovirus system, and purified by using glutathione sepharose chromatography. Catalytic domain of CK1δ was expressed as N-terminal GST-fusion protein in E. coli, and purified by using glutathione sepharose chromatography.

[2] = test system: carrageenan-induced inflammatory pain in mice; assay: Carrageenan-induced acute inflammatory pain behaviors, intrathecal injection; type: in vivo, mouse; settings: for withdrawal latency of the ipsilateral hind paw (thermal hyperalgesia), carrageenan / withdrawal threshold of the ipsilateral hind paw (mechanical allodynia), carrageenan: i.t., IC261 0.1-1 nmol, TG003 0.1-100 pmol
Description: (§4) Male C57BL/6 J mice (5 weeks old) were purchased from Clea Japan, Inc. (Tokyo, Japan) and housed under controlled temperature (24 ± 1°C) and humidity (55 ± 10%) with a 12-hour light-dark cycle with food and water freely available. The animal experiments were approved by the Animal Care Committees of Tokyo Medical and Dental University (approval No. 0090173) and Kagoshima University (approval No. MD10053), and were conducted in accordance with the ethical guidelines for the study of experimental pain in conscious animals published by the International Association of the Study of Pain (1995) and the European Communities Council Directive of 24 November, 1986 (86/609/EEC).
(§5) To produce acute and persistent inflammatory pain, carrageenan (2% lambda carrageenan in saline, 25 μl, Sigma, St. Louis, MO) and complete Freund’s adjuvant (CFA, 25 μl, Sigma) were injected into the plantar surface of the right hindpaw under light halothane anesthesia, respectively. Control mice were treated with saline or incomplete Freund’s adjuvant (IFA, Sigma), respectively. Mechanical allodynia and thermal hyperalgesia were measured using the Dynamic Plantar Aesthesiometer (Ugo Basile, Comerio VA, Italy) and the Paw Thermal Stimulator (UCSD, San Diego, CA, USA), respectively as described. In CFA model, these behavioral experiments were conducted 3 days after the injection. Intrathecal (i.t.) injection was given in a volume of 5 μl by percutaneous puncture through an intervertebral space at the level of the 5th or 6th lumbar vertebra, according to a previously reported procedure. An investigator, who was unaware of the drug treatment, performed all of the behavioral experiments.

human CK1γ3 = target: T2, human CK1γ3 (Homo sapiens, UniProt Q9Y6M4); assay: In vitro kinase assay (QuickScout mobility shift assay), CK1γ3; type: biochemical; settings: substrate peptide CKtide; ATP at Km 3.2 μM; average of duplicated experiments
T2 construct: Full-length human CK1α, CK1γ1, CK1γ2, CK1γ3; GST (N); purchased Carna Biosciences, Inc; host or cells: baculovirus system (insect cells)
From the text: (§6) Detailed information on the assay condition is available on the website of Carna Biosciences (http://www.carnabio.com). Full-length human CK1α, CK1γ1, CK1γ2, CK1γ3 and catalytic domain of human CK1ϵ were expressed as N-terminal GST-fusion protein using baculovirus system, and purified by using glutathione sepharose chromatography. Catalytic domain of CK1δ was expressed as N-terminal GST-fusion protein in E. coli, and purified by using glutathione sepharose chromatography.

human CK1ϵ = target: T3, human CK1ϵ (Homo sapiens, UniProt P49674); assay: In vitro kinase assay (QuickScout mobility shift assay), CK1ϵ; type: biochemical; settings: substrate peptide CKtide; ATP at Km 16 μM; average of duplicated experiments
T3 construct: catalytic domain of human CK1ϵ were expressed as N-terminal GST-fusion protein; GST (N); purchased Carna Biosciences, Inc; host or cells: baculovirus system (insect cells)
T3 sequence (P49674 9-277 limits assumed): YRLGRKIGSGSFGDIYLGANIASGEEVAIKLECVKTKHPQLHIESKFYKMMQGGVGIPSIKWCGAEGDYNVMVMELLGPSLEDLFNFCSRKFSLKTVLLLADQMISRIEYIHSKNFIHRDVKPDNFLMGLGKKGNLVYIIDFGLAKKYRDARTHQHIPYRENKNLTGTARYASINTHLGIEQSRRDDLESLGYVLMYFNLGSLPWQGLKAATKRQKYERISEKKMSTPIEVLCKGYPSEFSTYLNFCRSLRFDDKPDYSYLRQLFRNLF
From the text: as §6

human CK1γ1 = target: T4, human CK1γ1 (Homo sapiens, UniProt Q9HCP0); assay: In vitro kinase assay (QuickScout mobility shift assay), CK1γ1; type: biochemical
T4 construct: Full-length human CK1α, CK1γ1, CK1γ2, CK1γ3; GST (N); purchased Carna Biosciences, Inc; host or cells: baculovirus system (insect cells)
From the text: as §3

CK1δ [3] = target: T5, CK1δ (Homo sapiens, UniProt P48730); assay: In vitro kinase assay (QuickScout mobility shift assay), CK1δ; type: biochemical
T5 construct: Catalytic domain of CK1δ was expressed as N-terminal GST-fusion protein in E. coli; GST (N); purchased Carna Biosciences, Inc; host or cells: E. coli
T5 sequence (P48730 9-277 limits assumed): T3 sequence (P49674 9-277 limits assumed) with A19T, N20D, S23A, F47I, S59T, K61R, S241A
From the text: as §6

[4] = test system: CFA-induced inflammatory pain in mice; assay: CFA-induced persistent inflammatory pain behaviors, intrathecal injection; type: in vivo, mouse; settings: for withdrawal latency of the ipsilateral hind paw (thermal hyperalgesia), CFA / withdrawal threshold of the ipsilateral hind paw (mechanical allodynia), CFA: i.t., IC261 0.1-1 nmol, TG003 0.1-100 pmol, 3 days after CFA
Description: as §4, §5

[5] = test system: substantia gelatinosa neurons; assay: Whole-cell patch-clamp recording of sIPSCs in spinal cord slices; type: cell-based, mouse; settings: 1 μM, holding potential 0 mV
Description: as §1
Blind whole-cell patch-clamp recordings were made from the lamina II (substantia gelatinosa: SG) neurons ipsilateral to carrageenan, CFA, or vehicle (saline or IFA) injection in voltage clamp mode. Patch pipettes were fabricated from thin-walled, borosilicate, glass-capillary tubing (1.5 mm o.d., World Precision Instruments). […] Data were stored with a personal computer using pCLAMP10 software and analyzed with Mini Analysis software (Synaptosoft Inc., Decatur, GA, USA).
as §2

human CK1γ2 = target: T6, human CK1γ2 (Homo sapiens, UniProt P78368); assay: In vitro kinase assay (QuickScout mobility shift assay), CK1γ2; type: biochemical
T6 construct: Full-length human CK1α, CK1γ1, CK1γ2, CK1γ3; GST (N); purchased Carna Biosciences, Inc; host or cells: baculovirus system (insect cells)
From the text: as §6

CK1ϵ = target: T7, CK1ϵ (Homo sapiens, UniProt P49674); assay: PER3 nuclear translocation assay, HEK293 cells expressing CK1ϵ; type: cell-based; settings: 1 hour pre-incubation, 8 hours doxycycline
T7 construct: F2A peptide (self-cleaving link to EGFP; its remnant stays on the CK1 C-terminus) (C); expressed in transfected cells; co-expressing mCherry-PER3
Description: (§7) HEK293 cells seeded in a density of 1 × 10^5 cells/dish in polyethyleneimine-coated 35 mm glass bottom dishes (MatTek, Ashland, MA) were cultured for 2 days. […] After 8 hour incubation with doxycycline at 37°C, cells were fixed with 10% Formaldehyde Neutral Buffer Solution (Nacalai Tesque) for 10 min at room temperature. Cells were washed twice with PBS and then stained with 5 μg/ml of Hoechst33342 (Dojindo, Kumamoto, Japan) in PBS for 30 min at room temperature. The Hoechst33342 solution was removed and cells were washed with PBS, and stored in 1.5 ml PBS at 4°C in the dark until taking fluorescent images on the Confocal Laser Scanning Biological Microscope FV10i (Olympus, Tokyo, Japan).
(§8) The fluorescent images were analyzed by the compartmental analysis algorithm predefined in Cellomics BioApplications (Thermo Fisher Scientific, Waltham, MA). The nuclear-cytoplasmic ratio of the mCherry-PER3 signal intensity was quantified by dividing the mean average mCherry intensity in the nuclear area defined as “circ” by the mean average mCherry intensity of a “ring” around this area, which covered a cytoplasmic region. The distance of the circ to the nuclear outline was 16 pixels. […] The fluorescent image containing over 15 objects (cells) counted by the compartmental analysis algorithm was used for analysis. […]

CK1δ [6] = target: CK1δ (Homo sapiens, UniProt P48730); assay: PER3 nuclear translocation assay, HEK293 cells expressing CK1δ; settings: 30 μM, 1 hour pre-incubation, 8 hours doxycycline
Target sequence in this assay (P48730 whole entry, the tested form may be a part, canonical isoform): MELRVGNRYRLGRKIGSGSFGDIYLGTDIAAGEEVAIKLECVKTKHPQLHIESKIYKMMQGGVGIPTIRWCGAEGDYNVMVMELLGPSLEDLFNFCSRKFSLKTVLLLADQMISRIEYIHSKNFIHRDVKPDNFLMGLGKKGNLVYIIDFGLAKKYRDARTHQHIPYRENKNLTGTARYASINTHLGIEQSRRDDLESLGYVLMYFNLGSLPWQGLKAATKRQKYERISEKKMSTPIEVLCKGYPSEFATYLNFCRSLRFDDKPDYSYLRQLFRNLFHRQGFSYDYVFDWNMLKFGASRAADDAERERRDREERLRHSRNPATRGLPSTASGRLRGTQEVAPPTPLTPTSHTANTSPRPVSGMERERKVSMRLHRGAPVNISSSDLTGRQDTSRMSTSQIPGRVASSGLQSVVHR
Description: as §7, §8

Clk1 = test system: Clk1; parameters: method as in PMID 15010457; settings: range given for Clk1 and 4 isoforms together; read-out: IC50 against Clk1; cited from earlier work

T4 sequence (Q9HCP0 whole entry): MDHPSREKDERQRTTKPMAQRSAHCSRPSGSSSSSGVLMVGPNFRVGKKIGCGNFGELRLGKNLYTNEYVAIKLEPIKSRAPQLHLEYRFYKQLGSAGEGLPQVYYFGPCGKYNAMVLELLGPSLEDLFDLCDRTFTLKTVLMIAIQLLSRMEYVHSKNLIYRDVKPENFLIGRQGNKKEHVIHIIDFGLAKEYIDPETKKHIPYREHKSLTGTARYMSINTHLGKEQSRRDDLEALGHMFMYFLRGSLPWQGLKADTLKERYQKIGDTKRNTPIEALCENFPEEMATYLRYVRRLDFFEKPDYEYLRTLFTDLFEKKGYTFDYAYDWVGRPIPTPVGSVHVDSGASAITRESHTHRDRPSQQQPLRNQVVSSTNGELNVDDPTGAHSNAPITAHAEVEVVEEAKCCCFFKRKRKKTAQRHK
T1 sequence (P48729 whole entry): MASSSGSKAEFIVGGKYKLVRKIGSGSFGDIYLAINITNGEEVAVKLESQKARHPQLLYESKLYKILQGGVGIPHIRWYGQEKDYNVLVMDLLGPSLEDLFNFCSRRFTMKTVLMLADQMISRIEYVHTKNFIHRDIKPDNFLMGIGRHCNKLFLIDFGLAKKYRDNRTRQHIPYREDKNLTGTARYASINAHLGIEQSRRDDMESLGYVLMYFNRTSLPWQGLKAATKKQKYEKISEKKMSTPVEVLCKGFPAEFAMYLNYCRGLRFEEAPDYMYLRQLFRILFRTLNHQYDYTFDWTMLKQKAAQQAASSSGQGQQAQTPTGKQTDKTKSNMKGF
T7 sequence (P49674 whole entry): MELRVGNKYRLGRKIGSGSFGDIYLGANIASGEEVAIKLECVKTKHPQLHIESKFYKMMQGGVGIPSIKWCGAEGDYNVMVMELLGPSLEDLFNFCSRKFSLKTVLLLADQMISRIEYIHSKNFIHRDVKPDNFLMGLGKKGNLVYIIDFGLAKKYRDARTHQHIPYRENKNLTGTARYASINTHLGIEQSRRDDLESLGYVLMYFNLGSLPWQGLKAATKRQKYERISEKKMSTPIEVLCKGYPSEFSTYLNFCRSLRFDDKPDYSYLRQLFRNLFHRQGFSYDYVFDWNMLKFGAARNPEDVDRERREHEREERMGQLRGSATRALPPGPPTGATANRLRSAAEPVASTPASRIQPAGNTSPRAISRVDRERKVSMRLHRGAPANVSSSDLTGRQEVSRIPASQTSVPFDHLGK
T6 sequence (P78368 whole entry): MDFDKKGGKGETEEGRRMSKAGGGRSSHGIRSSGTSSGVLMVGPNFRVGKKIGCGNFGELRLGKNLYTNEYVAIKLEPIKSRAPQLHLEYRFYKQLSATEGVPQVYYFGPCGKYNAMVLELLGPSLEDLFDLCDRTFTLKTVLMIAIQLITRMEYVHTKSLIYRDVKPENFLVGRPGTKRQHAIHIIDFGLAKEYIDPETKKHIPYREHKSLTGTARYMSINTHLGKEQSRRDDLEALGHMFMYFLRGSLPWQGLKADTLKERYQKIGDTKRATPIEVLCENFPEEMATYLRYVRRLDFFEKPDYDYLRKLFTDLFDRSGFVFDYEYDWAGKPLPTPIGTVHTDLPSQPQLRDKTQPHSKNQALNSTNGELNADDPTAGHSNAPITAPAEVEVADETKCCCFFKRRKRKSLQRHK
T2 sequence (Q9Y6M4 whole entry): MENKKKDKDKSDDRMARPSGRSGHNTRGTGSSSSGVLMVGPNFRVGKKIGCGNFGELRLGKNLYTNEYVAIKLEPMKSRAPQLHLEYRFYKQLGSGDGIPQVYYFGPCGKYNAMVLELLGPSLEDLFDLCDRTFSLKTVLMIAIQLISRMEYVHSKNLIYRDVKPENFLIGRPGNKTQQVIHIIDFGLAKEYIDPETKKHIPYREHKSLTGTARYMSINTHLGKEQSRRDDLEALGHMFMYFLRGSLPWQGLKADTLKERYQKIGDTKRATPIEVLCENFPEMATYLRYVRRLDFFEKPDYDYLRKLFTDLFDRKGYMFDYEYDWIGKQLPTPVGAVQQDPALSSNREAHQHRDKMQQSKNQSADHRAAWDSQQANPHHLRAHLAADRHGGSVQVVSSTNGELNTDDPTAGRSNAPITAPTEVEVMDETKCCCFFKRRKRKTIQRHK

Q: For COc1cc(OC)c(C=C2C(O)=Nc3ccccc32)c(OC)c1 [IC261], which “frequency and amplitude of sEPSCs, control mice” value [1] is on record?
A: altered neither the frequency nor the amplitude of sEPSCs

Q: What about the “mean frequency of sEPSCs in inflammatory pain model mice” value [1] of the same molecule?
A: decreased

Q: And the IC50 (human CK1α)?
A: 190 nM

Q: What about the “withdrawal latency of the ipsilateral hind paw (thermal hyperalgesia), carrageenan” value [2] of the same molecule?
A: dose-dependently increased

Q: And the “withdrawal threshold of the ipsilateral hind paw (mechanical allodynia), carrageenan” value [2]?
A: dose-dependently increased

Q: What about the “development of thermal hyperalgesia induced by carrageenan” value ([2]; spinal preemptive treatment, i.t. 30 min before carrageenan) of the same molecule?
A: dose-dependently attenuated

Q: And the IC50 (human CK1γ3)?
A: > 30000 nM

Q: What about the IC50 (human CK1ϵ) of the same molecule?
A: 860 nM

Q: And the IC50 (human CK1γ1)?
A: > 30000 nM

Q: And the IC50 (CK1δ [3])?
A: 600 nM

Q: What about the “withdrawal latency of the ipsilateral hind paw (thermal hyperalgesia), CFA” value [4] of the same molecule?
A: dose-dependently increased

Q: And the “withdrawal threshold of the ipsilateral hind paw (mechanical allodynia), CFA” value [4]?
A: dose-dependently increased

Q: What about the “sIPSCs from the inflamed mice” value ([5]; carrageenan- and CFA-inflamed mice) of the same molecule?
A: did not affect sIPSCs

Q: And the “mean amplitude of control sIPSCs” value ([5]; control mice)?
A: slight but significant reduction

Q: And the IC50 (human CK1γ2)?
A: > 30000 nM

Q: With Nc1nccc(-c2c(-c3ccc(F)cc3)ncn2C2CCCCC2)n1 [PF-670462] as the molecule, how does the “CK1ϵ-induced nuclear translocation of mCherry-PER3” value (CK1ϵ; 1 μM) read?
A: also inhibited the nuclear translocation

Q: With CCN1/C(=C/C(C)=O)Sc2ccc(OC)cc21 [TG003] as the molecule, how does the “frequency and amplitude of sEPSCs, control mice” value [1] read?
A: altered neither the frequency nor the amplitude of sEPSCs

Q: What about the “mean frequency of sEPSCs in inflammatory pain model mice” value [1] of the same molecule?
A: decreased

Q: What about the IC50 (human CK1α; substrate peptide CKtide, ATP at Km 4.1 μM, average of duplicated experiments, read-out: IC50 on the kinase activity of CK1α) of the same molecule?
A: 330 nM

Q: What about the “withdrawal latency of the ipsilateral hind paw (thermal hyperalgesia), carrageenan” value [2] of the same molecule?
A: dose-dependently increased

Q: What about the “withdrawal threshold of the ipsilateral hind paw (mechanical allodynia), carrageenan” value [2] of the same molecule?
A: dose-dependently increased

Q: What about the IC50 (human CK1γ1; substrate peptide CKtide, ATP at Km 6.3 μM, average of duplicated experiments, read-out: IC50 on the kinase activity of CK1γ1) of the same molecule?
A: 1500 nM

Q: And the “CK1ϵ-induced nuclear translocation of mCherry-PER3” value (CK1ϵ; 30 μM)?
A: inhibited the nuclear translocation of mCherry-PER3

Q: What about the CFA-induced mechanical allodynia ([4]; 1 pmol i.t.) of the same molecule?
A: significantly reversed

Q: What about the CFA-induced thermal hyperalgesia ([4]; 1 pmol i.t.) of the same molecule?
A: did not affect

Q: And the “withdrawal latency of the ipsilateral hind paw (thermal hyperalgesia), CFA” value [4]?
A: dose-dependently increased

Q: What about the “withdrawal threshold of the ipsilateral hind paw (mechanical allodynia), CFA” value [4] of the same molecule?
A: dose-dependently increased

Q: What about the “CK1δ-induced nuclear translocation of mCherry-PER3” value (CK1δ [6]) of the same molecule?
A: inhibited the nuclear translocation of mCherry-PER3
